From patent US20260335446A1, “TETRAZINE-BASED TARGETING AGENTS FOR IN VIVO DELIVERY OF A PAYLOAD” (Tambo, Inc., priority 2023, published 2026)

Test: LCMS analysis of drug release by tetrazines (TCO-MMAE Compound B)
Conditions: tetrazine 20 μM, Compound B 10 μM, PBS
Experimental: A solution of each tetrazine (20 μM final concentration) in PBS is mixed with TCO-MMAE Compound B (10 μM final concentration). The solution is mixed thoroughly and an aliquot removed at the appropriate time for analysis by LCMS.

Compared with `Cc1nnc(-n2cccn2)nn1`, `Cc1nnc(-c2ccccn2)nn1` is higher in “% Compound B consumed (1 h)” value: 81% for the first, 100% for the second.

Going from `Cc1nnc(-c2cocn2)nn1` to `Cc1nnc(-c2cn(C)cn2)nn1`, the “% Compound B consumed (1 h)” value rises from 42% to 74%.

`Cc1nnc(-c2ccc(CN)c(C(F)(F)F)c2)nn1` and `Cc1nnc(-c2ccc(C(F)(F)F)c(CN)c2)nn1` are the same in “% Compound B consumed (1 h)” value: 100% for the first, 100% for the second.

For `Cc1nnc(-c2ncccn2)nn1`, the “% Compound B consumed (1 h)” value was 100%.

Test: LC-MS quantification of conversion of protodrug in presence of Compound 111 in rat plasma-EDTA
Conditions: FIG. 2, 37° C., Compound 111 100 μg/mL, protodrug 250 ng/mL
Experimental: Liquid chromatography-mass spectrometry (LC-MS) was used to quantify the conversion of Compound B protodrug to MMAE and Compound F to exatecan in the presence of Compound 111. Compound 111 (100 μg/mL) was added to rat plasma-EDTA and incubated at 37° C. The protodrugs, Compound B and Compound F, were added to the plasma with the final concentration of 250 ng/mL. At each time point, triplicate aliquots were transferred to a plate with various pH extraction conditions and precipitated with acetonitrile for Compound B/MMAE or methanol for Compound F/exatecan. LC-MS/MS analyzed the extracted samples with the instrument methods previously established for each analyte. The conversion percentage was calculated based on the initial concentration of protodrugs and the formation of exatecan and MMAE in mole/mL.

With `CC[C@@]1(O)C(=O)OCc2c1cc1n(c2=O)Cc2c-1nc1cc(F)c(C)c3c1c2[C@@H](NC(=O)O[C@H]1/C=C/CC[C@@](C)(C(=O)NCCOCCOCCOCCN(CCOCCOCCOCCC(=O)O)CCOCCOCCOCCC(=O)O)CC1)CC3` [Compound F] the “conversion to exatecan after reaction with Compound 111” value was “rapidly converted”.

For `CC[C@H](C)[C@@H]([C@@H](CC(=O)N1CCC[C@H]1[C@H](OC)[C@@H](C)C(=O)N[C@H](C)[C@@H](O)c1ccccc1)OC)N(C)C(=O)[C@@H](NC(=O)[C@H](C(C)C)N(C)C(=O)O[C@H]1/C=C/CC[C@@](C)(C(=O)N[C@@H](CC(=O)O)C(=O)O)CC1)C(C)C` [Compound B], the “conversion to MMAE after reaction with Compound 111” value was “rapidly converted”.
